Values quoted from earlier work in patent US9974839B2, “Self-assembled toroidal-spiral particles and manufacture and uses thereof” (THE BOARD OF TRUSTEES OF THE UNIVERSITY OF ILLINOIS, priority 2009, dated 2018).

System: mitogenic activity
Details: in vitro

In the case of “mono-PEGylated epidermal growth factor (EGF) with PEG 3400 at Lys28 and Lys48: literature EGF mono-PEGylated with PEG 3400 at Lys28 and Lys48 (ref. 28) (NSDSECPLSHDGYCLHDGVCMYIEALDKYACNCVVGYIGERCQYRDLKWWELR; Epidermal growth factor PEG 3400; UniProt P01133 971-1023, looked up)”, the “mitogenic activity relative to EGF isomer PEGylated at the amino terminus” value is listed as “significantly less active”.
